From US20250186450A1, “COMBINATION THERAPY COMPRISING DGK INHIBITORS and PD-1/PD-L1 INHIBITORS” (Incyte Corporation, priority 2023, published 2025)

What was measured:
DGKα = DGKα (Homo sapiens (Human), UniProt P23743); experiment: In vitro DGKα inhibition assay (ADP-Glo); type: biochemical; conditions: 0.1 nM DGKα, 50 μM ATP, 20 μM DLG
Protocol: (§1) The DGKα and DGKζ biochemical reactions were performed using His-tagged human recombinant enzymes (Signal Chem, DGKα, #D21-10BH; DGKζ, #D30-10H)) and DLG (Dilauroyl-sn-glycerol) lipid substrate (Signal Chem, #D430-59). ADP-Glo assay was performed using ADP-Glo™ kinase Assay kit (Promega, #V9104). The reactions were carried out in assay buffer containing 40 mM Tris, pH 7.5, 0.1% CHAPS, 0.1% Prionex, 40 mM NaCl, 5 mM MgCl2, 1 mM CaCl2, and 1 mM DTT. DGKα reactions contained 0.1 nM DGKα, 50 μM ATP, and 20 μM DLG. And DGKζ reactions contained 0.4 nM DGKζ, 30 μM ATP, and 20 μM DLG.
(§2) For compound inhibition studies, 40 nL test compound in DMSO was added to wells of white polystyrene plates in 384-well (Greiner, #784075) or 1536-well format (Greiner, #782075). Compounds were added with top concentration of 2 mM with 11 point, 3-fold dilution series. Enzyme solution (contains 2×DGK enzyme concentration in 1× assay buffer) was added to the plate in 2 μL/well volume, followed by 2 μL/well of substrate solution (contains 2× concentration of ATP and DLG substrate in 1× assay buffer). Plates were then centrifuged for 1 min at 1200 RPM and sealed or lidded. For 4 μL reaction volume, test compounds were therefore diluted 100× to final top concentration of 20 μM. After 90 minute incubation, reactions were quenched by addition of 2 μL/well Promega ADP-Glo Reagent, followed by centrifugation and lidding. After 60 min incubation, 2 μL/well Promega Kinase Detection Reagent was added, plates centrifuged, and incubated for 30 min. Plates were then read using Luminescence method on BMG PHERAstar FSX plate reader. Percent inhibition was calculated and IC50s were determined using 4-parameter fit in Genedata Screener. Labcyte Echo acoustic dispenser was used for compound addition, and Formulatrix Tempest liquid handler was used for all reagent dispenses.

DGKζ = DGKζ (Homo sapiens (Human), UniProt Q13574); experiment: In vitro DGKζ inhibition assay (ADP-Glo); type: biochemical; conditions: 0.4 nM DGKζ, 30 μM ATP, 20 μM DLG
Sequence of DGKζ (Q13574 whole entry): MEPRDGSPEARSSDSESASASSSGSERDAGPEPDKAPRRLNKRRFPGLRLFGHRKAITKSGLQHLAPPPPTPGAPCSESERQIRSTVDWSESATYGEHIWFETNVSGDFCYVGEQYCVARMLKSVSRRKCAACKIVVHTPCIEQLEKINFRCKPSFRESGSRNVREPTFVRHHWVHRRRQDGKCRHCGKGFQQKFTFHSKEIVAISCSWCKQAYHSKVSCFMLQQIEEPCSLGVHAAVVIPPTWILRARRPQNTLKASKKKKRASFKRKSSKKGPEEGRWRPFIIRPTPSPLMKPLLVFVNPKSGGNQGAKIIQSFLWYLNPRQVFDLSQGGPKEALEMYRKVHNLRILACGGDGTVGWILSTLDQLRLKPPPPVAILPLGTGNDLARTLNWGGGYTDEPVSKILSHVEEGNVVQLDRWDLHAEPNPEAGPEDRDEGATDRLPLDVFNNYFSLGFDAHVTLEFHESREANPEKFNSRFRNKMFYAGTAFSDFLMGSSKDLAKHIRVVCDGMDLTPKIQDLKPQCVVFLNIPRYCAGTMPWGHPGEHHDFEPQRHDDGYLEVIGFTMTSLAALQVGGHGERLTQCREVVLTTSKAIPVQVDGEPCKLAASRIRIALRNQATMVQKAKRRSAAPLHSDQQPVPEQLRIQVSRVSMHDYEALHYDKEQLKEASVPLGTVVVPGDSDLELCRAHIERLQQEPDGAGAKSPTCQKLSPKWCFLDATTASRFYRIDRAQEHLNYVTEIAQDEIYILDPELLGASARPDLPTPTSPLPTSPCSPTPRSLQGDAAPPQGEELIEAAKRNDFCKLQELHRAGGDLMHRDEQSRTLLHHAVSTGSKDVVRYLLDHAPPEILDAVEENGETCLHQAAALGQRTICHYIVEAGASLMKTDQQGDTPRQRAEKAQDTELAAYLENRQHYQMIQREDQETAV
Protocol: as §1, §2

[1] = system: CT26 syngeneic tumor model; experiment: CT26 syngeneic tumor model, DGK inhibitor plus anti-PD-1 (RMP1-14); type: in vivo, Balb/C mice; conditions: for tumor growth delay vs control vehicle group: Compound 1 alone
Protocol: The in vivo effect of combining Compound 1 plus anti-PD-1 (RMP1-14, Bio X Cell) was assessed in the CT26 (CRL-2638, ATCC, Manassas, VA) syngeneic tumor model (see FIG. 1) in 6 to 8 weeks old Balb/C mice (Jackson laboratories). Compound 1 was suspended in 5% N,N-dimethylacetamide (DMAC)+50 mM Citrate buffer in 0.5% methyl cellulose for oral administration and RMP1-14 was suspended in saline for intraperitoneal administration. Briefly, the left flank of the mice was shaved the day prior to subcutaneous inoculation with 1×10^6 CT26 cells suspended in PBS. On day 7, tumor dimensions were measured by Vernier calipers, and volume estimated by the formula Volume=[L (long dimension)×W^2 (short dimension)]/2. Mice were randomized into 6 groups of 10 mice of approximate mean volume (˜150 mm^3). Tumors were measured 3 times per week for the duration of the study. Starting day 7, mice were dosed with (i) vehicle; (ii) 250 μg/mouse of RMP1-14; (iii) 10 mg/kg of Compound 1; (iv) 3 mg/kg of Compound 1; (v) 10 mg/kg of Compound 1 and 250 μg/mouse of RMP1-14; or (vi) 3 mg/kg of Compound 1 and 250 μg/mouse of RMP1-14. Compound 1 was administered orally once daily (QD) for 14 days, while RMP1-14 was dosed every 5 days (for a total of 3 doses).
In a separate experiment, mice were randomized on day 7 into 10 groups of 10 mice of approximate mean volume (˜120 mm^3). Tumors were measured 3 times a week for the duration of the efficacy study (day 22). Starting day 7, mice were dosed with (i) vehicle; (ii) 250 μg/mouse of RMP1-14; (iii) 10 mg/kg of Compound 1 QD; (iv) 10 mg/kg of Compound 1 Q2D; (v) 3 mg/kg of Compound 1 QD; (vi) 3 mg/kg of Compound 1 […]; (vii) 10 mg/kg of Compound 1 QD and 250 μg/mouse of RMP1-14; (viii) 10 mg/kg of Compound 1 Q2D and 250 μg/mouse of RMP1-14; (ix) 3 mg/kg of Compound 1 QD and 250 μg/mouse of RMP1-14; or (x) 3 mg/kg of Compound 1 Q2D and 250 μg/mouse of RMP1-14. Compound 1 was administered orally either daily (QD) or every other day (Q2D) for 10 days, while RMP1-14 was dosed every 5 days (for a total of 2 doses).
The in vivo effect of combining Compound 2 plus anti-PD-1 (RMP1-14, Bio X Cell) was assessed in the CT26 (CRL-2638, ATCC, Manassas, VA) syngeneic tumor model (see FIG. 6A-6B) in 6 to 8 weeks old Balb/C mice (Jackson laboratories). Compound 2 was suspended in 5% N,N-dimethylacetamide (DMAC)+50 mM Citrate buffer in 0.5% methyl cellulose for oral administration and RMP1-14 was suspended in saline for intraperitoneal administration. Briefly, the left flank of the mice was shaved the day prior to subcutaneous inoculation with 1×10^6 CT26 cells suspended in PBS. On day 7, tumor dimensions were measured by Vernier calipers, and volume estimated by the formula Volume=[L (long dimension)×W^2 (short dimension)]/2. Mice were randomized into 6 groups of 10 mice of approximate mean volume (˜130 mm^3). Tumors were measured 3 times per week for the duration of the study. Starting day 7, mice were dosed with (i) vehicle; (ii) 250 μg/mouse of RMP1-14 (Anti-PD-1); (iii) 1.5 mg/kg of Compound 2 QD; (iv) 1.5 mg/kg of Compound 2 QD and 250 μg/mouse of RMP1-14; (v) 1.5 mg/kg of Compound 2 Q2D; (vi) 1.5 mg/kg of Compound 2 Q2D and 250 μg/mouse of RMP1-14; (vii) 1.5 mg/kg of Compound 2 Q3D; or (viii) 1.5 mg/kg of Compound 2 Q3D and 250 μg/mouse of RMP1-14.

Sequence of DGKα (P23743 whole entry): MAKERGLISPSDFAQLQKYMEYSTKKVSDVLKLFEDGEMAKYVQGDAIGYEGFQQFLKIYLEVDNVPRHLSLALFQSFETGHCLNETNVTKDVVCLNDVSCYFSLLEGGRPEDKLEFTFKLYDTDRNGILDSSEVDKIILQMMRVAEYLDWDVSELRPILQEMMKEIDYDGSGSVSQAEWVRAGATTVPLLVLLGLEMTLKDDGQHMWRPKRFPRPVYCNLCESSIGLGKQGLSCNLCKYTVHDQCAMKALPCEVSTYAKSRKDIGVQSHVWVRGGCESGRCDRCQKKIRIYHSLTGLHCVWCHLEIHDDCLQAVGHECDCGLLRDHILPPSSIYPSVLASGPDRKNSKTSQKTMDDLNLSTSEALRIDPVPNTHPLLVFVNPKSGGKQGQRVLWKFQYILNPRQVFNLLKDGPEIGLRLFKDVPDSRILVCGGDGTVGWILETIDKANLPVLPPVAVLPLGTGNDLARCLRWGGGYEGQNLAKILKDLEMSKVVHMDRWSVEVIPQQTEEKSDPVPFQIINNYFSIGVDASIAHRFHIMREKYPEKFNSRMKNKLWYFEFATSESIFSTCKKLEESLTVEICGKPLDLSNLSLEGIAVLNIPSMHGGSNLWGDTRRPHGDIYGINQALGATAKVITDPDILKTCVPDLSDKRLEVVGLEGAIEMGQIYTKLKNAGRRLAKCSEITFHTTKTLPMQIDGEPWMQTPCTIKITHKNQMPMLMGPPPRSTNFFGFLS

Row | SMILES | IC50 (DGKα) [nM] | IC50 (DGKζ) [nM] | combination effect on tumor growth delay (Bliss Independence analysis) ([1]; 10 mg/kg or 3 mg/kg Compound 1 QD for 14 days with 250 μg RMP1-14 every 5 days, vs respective controls, FIG. 1) | combination effect on tumor growth delay (Bliss Independence analysis) ([1]; 10 mg/kg or 3 mg/kg Compound 1 QD or Q2D for 10 days with 250 μg RMP1-14, vs respective controls, FIG. 2) | tumor growth delay vs control vehicle group ([1]; 10 mg/kg orally QD for 14 days, FIG. 1) | tumor growth delay vs control vehicle group ([1]; 10 and 3 mg/kg QD for 10 days, separate experiment, FIG. 2) | tumor volume vs RMP1-14 alone (Kruskal-Wallis Multiple Comparison Test) ([1]; all groups tested against group (ii) 250 μg/mouse RMP1-14, FIG. 2) | TGI, combined with anti-PD-1 mAb ([1]; 1.5 mg/kg Compound 2 Q2D and 250 μg/mouse RMP1-14, FIGS. 6A-6B) | TGI, combination groups vs respective single-arm control group ([1]; 1.5 mg/kg Compound 2 QD, Q2D or Q3D and 250 μg/mouse RMP1-14) | TGI vs vehicle control group ([1]; Compound 2 alone, 1.5 mg/kg QD, Q2D or Q3D, FIG. 6B)
1 | C[C@@H]1CN(c2nc3nncn3c3c2nnn3C[C@H]2CCCO2)[C@@H](C)CN1C(c1ccc(F)cc1)c1ccc(F)cc1 [Example 1, 4-((2S,5R)-4-(Bis(4-fluorophenyl)methyl)-2,5-dimethylpiperazin-1-yl)-1-(((R)-tetrahydrofuran-2-yl)methyl)-1H-[1,2,3]triazolo[4,5-e][1,2,4]triazolo[4,3-a]pyrimidine] | ≤ 20 | ≤ 20 | synergistic effect in tumor growth delay | synergistic effect in tumor growth delay | therapeutic effect in delaying tumor growth | therapeutic effect in delaying tumor growth | statistical significance | – | – | –
2 | Cc1nc2c(N3C[C@@H](C)N(C(c4ccc(C(F)(F)F)cc4)C4CC(F)(F)C4)C[C@@H]3C)nc3nncn3c2n1C[C@@H]1CCCO1 (single isomer, unassigned) [Example 2] | ≤ 20 | ≤ 20 | – | – | – | – | – | significant TGI | statistically significant | None of the single treatment arm groups dosed with 1.5 mg/kg Compound 2 provided statistically significant TGI
